# What was measured:
# Test in all cases: Ray2010 Assay 74
# [1] = target: T1, Alpha-2A adrenergic receptor (Homo sapiens, UniProt P08913)
# T1 sequence (P08913 whole entry): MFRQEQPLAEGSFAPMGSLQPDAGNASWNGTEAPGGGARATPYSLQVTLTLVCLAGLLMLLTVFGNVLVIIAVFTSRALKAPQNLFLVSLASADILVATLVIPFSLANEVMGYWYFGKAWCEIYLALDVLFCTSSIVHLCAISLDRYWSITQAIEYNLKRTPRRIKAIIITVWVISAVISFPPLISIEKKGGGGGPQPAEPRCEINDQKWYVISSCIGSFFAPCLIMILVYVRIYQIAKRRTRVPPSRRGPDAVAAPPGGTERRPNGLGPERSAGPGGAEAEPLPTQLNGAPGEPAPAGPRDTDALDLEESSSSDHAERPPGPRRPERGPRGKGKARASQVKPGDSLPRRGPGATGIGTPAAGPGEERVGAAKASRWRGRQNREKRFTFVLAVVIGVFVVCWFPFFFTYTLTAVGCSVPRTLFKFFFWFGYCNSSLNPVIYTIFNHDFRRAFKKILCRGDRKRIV
# From the text: (§1) Table S2 shows raw Ki data for the current study combined with data collected from the literature for the ten additional compounds.
# [2] = target: T2, Gamma-aminobutyric acid receptor subunit alpha-1/Adenosine receptor A1 (Homo sapiens, UniProt P14867+P30542)
# T2 sequence (P30542 whole entry): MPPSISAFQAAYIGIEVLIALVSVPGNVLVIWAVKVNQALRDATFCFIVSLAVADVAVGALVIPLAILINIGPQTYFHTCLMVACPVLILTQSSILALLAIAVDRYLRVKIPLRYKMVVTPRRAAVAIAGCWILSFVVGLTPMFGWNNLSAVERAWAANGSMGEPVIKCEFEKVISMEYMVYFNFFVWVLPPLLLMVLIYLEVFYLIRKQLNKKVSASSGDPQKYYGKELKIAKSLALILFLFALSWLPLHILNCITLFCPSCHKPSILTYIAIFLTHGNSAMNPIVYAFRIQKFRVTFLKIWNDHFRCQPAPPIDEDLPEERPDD
# T2 sequence (P14867 whole entry): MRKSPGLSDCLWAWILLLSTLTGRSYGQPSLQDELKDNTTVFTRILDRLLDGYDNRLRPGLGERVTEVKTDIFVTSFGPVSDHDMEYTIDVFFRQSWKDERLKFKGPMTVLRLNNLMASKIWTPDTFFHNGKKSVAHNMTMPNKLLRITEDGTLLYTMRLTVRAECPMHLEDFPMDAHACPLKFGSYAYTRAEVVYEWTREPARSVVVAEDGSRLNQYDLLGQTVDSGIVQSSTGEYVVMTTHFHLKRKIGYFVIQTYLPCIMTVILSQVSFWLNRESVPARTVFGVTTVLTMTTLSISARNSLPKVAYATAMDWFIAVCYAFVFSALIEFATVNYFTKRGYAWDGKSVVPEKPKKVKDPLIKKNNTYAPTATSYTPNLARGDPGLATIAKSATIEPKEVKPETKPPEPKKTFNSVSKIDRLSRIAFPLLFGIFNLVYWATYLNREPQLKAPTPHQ
# From the text: as §1
# [3] = target: Histamine H3 receptor (Homo sapiens, UniProt Q9Y5N1)
# Histamine H3 receptor, sequence (Q9Y5N1 whole entry): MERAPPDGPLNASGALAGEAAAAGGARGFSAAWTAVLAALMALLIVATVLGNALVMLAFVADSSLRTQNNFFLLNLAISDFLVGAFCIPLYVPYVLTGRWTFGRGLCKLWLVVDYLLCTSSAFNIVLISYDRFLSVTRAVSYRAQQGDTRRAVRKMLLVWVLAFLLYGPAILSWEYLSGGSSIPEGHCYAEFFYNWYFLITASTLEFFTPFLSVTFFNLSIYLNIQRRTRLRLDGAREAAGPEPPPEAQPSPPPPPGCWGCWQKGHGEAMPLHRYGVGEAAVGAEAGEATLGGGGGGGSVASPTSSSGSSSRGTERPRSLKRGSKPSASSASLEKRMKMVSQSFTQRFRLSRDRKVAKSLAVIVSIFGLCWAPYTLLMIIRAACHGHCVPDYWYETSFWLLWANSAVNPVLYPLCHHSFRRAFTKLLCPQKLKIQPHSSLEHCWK
# From the text: as §1
# [4] = target: Kappa-type opioid receptor (Homo sapiens, UniProt P41145)
# Kappa-type opioid receptor, sequence (P41145 whole entry): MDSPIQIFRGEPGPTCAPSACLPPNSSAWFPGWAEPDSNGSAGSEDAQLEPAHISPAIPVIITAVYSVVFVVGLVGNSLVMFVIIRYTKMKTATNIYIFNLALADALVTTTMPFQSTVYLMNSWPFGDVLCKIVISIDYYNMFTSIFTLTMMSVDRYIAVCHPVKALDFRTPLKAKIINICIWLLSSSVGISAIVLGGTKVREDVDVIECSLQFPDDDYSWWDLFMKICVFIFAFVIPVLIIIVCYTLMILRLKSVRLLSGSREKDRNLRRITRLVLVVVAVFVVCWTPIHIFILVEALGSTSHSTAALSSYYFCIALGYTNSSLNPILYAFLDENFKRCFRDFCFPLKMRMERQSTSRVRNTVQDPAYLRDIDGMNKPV
# From the text: as §1
# [5] = target: Muscarinic acetylcholine receptor M3 (Homo sapiens, UniProt P20309)
# Muscarinic acetylcholine receptor M3, sequence (P20309 whole entry): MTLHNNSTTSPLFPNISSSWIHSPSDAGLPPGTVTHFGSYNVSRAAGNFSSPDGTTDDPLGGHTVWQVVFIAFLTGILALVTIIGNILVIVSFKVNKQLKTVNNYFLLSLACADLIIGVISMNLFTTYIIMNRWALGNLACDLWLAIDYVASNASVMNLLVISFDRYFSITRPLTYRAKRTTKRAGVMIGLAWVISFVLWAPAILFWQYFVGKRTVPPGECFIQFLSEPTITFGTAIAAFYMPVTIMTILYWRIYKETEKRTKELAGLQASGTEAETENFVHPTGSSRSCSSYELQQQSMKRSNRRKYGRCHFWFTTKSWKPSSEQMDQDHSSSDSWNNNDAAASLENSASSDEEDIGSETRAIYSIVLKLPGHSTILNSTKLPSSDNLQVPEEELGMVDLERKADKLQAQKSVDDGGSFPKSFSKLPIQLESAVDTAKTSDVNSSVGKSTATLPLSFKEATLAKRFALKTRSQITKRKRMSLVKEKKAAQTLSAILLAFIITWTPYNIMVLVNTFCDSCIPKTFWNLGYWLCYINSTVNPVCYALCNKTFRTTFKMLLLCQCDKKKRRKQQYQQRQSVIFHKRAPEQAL
# From the text: as §1
# [6] = target: T3, Muscarinic acetylcholine receptor M4 (Homo sapiens, UniProt P08173)
# T3 sequence (P08173 whole entry): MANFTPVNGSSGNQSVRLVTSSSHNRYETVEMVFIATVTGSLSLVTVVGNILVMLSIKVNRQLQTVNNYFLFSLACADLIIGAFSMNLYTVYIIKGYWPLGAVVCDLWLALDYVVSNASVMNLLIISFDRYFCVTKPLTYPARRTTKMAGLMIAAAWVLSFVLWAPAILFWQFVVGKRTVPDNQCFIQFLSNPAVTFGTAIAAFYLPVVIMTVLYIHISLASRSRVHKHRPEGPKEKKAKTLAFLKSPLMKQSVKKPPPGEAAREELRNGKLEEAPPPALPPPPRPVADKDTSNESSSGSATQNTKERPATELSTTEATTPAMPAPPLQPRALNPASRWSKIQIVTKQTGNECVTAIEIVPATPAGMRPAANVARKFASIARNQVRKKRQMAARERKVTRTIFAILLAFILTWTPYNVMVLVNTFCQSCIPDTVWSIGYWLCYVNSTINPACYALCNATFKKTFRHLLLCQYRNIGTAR
# From the text: as §1
# [7] = target: T4, Prostaglandin E2 receptor EP3 subtype (Homo sapiens, UniProt P43115)
# T4 sequence (P43115 whole entry): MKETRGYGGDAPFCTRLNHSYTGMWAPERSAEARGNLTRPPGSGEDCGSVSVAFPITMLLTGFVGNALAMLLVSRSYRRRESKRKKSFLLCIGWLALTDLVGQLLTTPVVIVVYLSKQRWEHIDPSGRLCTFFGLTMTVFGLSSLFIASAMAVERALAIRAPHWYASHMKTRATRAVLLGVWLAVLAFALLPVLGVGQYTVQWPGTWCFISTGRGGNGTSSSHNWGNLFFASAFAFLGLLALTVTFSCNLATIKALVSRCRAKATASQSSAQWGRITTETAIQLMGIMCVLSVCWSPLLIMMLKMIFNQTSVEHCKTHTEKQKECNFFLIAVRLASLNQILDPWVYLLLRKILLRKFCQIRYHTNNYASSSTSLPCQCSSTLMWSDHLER
# From the text: as §1
# [8] = target: Sigma intracellular receptor 2 (Homo sapiens, UniProt Q5BJF2)
# Sigma intracellular receptor 2, sequence (Q5BJF2 whole entry): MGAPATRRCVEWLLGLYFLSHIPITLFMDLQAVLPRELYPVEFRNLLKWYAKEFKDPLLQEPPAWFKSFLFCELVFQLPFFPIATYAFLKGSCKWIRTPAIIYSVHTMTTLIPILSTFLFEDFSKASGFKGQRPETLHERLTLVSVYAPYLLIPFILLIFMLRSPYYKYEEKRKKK
# From the text: as §1
# [9] = target: Sigma non-opioid intracellular receptor 1 (Homo sapiens, UniProt Q99720)
# Sigma non-opioid intracellular receptor 1, sequence (Q99720 whole entry): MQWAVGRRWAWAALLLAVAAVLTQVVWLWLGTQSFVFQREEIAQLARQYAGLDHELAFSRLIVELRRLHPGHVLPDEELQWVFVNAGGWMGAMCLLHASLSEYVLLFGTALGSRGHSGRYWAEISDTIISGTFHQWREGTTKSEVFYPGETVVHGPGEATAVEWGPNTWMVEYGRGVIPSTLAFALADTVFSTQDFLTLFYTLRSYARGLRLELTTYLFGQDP
# From the text: as §1
# [10] = target: Vasopressin V1a receptor (Homo sapiens, UniProt P37288)
# Vasopressin V1a receptor, sequence (P37288 whole entry): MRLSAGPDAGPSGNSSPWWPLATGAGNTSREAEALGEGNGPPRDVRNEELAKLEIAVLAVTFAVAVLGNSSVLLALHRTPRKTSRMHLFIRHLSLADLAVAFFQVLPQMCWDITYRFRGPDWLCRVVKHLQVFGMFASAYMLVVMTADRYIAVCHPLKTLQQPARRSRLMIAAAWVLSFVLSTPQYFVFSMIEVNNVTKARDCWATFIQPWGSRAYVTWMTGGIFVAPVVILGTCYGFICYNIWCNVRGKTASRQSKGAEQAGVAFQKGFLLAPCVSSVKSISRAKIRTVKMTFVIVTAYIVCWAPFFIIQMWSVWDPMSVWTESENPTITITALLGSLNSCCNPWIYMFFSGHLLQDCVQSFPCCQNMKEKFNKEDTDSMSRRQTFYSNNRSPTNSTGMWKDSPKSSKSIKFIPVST
# From the text: as §1
# [11] = target: Voltage-dependent calcium channel subunit alpha-2/delta-1 (Homo sapiens, UniProt P54289)
# Voltage-dependent calcium channel subunit alpha-2/delta-1, sequence (P54289 25-956 limits assumed): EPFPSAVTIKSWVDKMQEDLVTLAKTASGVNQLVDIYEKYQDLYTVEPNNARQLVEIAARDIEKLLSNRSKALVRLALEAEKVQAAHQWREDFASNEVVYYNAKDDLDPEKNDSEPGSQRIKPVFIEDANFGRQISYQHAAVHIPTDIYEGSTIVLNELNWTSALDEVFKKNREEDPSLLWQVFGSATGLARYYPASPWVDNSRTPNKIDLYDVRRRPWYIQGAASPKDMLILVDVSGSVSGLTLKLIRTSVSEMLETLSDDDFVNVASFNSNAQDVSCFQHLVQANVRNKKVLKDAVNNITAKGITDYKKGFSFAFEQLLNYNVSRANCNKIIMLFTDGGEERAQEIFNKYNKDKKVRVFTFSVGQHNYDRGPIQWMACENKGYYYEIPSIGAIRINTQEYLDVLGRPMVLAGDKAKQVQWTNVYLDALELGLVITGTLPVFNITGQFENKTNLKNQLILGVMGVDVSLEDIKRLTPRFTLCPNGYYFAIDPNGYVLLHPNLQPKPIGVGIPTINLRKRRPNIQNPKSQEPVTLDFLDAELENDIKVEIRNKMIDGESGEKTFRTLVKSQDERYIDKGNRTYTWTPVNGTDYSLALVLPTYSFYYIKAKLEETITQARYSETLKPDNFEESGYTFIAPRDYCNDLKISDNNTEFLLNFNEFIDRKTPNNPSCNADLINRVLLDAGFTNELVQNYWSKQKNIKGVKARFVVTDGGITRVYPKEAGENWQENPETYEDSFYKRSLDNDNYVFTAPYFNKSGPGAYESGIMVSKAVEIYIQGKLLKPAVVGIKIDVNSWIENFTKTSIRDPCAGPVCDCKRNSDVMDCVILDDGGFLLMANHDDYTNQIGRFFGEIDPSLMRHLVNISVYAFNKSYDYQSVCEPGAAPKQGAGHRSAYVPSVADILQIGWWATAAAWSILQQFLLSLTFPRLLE
# Voltage-dependent calcium channel subunit alpha-2/delta-1, sequence (P54289 957-1103 limits assumed): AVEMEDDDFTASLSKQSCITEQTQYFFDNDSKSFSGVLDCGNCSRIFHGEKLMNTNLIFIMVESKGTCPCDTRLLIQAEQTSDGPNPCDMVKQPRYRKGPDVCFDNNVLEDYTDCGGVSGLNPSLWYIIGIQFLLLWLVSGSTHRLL
# From the text: as §1
SMILES,Ki [1],Ki [2],Ki [3],Ki [4],Ki [5],Ki [6],Ki [7],Ki [8],Ki [9],Ki [10],Ki [11]
"CCSc1cc(OC)c(CC(C)N)cc1OC (configuration not stated) [2-(4-Ethylsulfanyl-2,5-dimethoxy-phenyl)-1-methyl-ethylamine]",5.8 µM,> 10 µM,> 10 µM,> 10 µM,1.91 µM,> 10 µM,> 10 µM,> 10 µM,0.239 µM,> 10 µM,> 10 µM
CCSc1cc(OC)c(CCN)cc1OC [2C-T-2],0.73 µM,> 10 µM,> 10 µM,> 10 µM,0.692 µM,> 10 µM,> 10 µM,> 10 µM,3.87 µM,> 10 µM,> 10 µM
"COc1cc(CCN)cc(OC)c1OC [3,4,5-trimethoxyphenylethylamine]",8.93 µM,> 10 µM,> 10 µM,> 10 µM,> 10 µM,> 10 µM,> 10 µM,> 10 µM,> 10 µM,> 10 µM,> 10 µM
COc1ccc2[nH]cc(CCN(C(C)C)C(C)C)c2c1 [5-meo-dipt],> 10 µM,> 10 µM,> 10 µM,> 10 µM,> 10 µM,> 10 µM,> 10 µM,3 µM,9.44 µM,> 10 µM,> 10 µM
COc1ccc2[nH]cc(CCN(C)C(C)C)c2c1 [5-meo-mipt],0.175 µM,> 10 µM,> 10 µM,> 10 µM,> 10 µM,> 10 µM,> 10 µM,0.918 µM,> 10 µM,> 10 µM,> 10 µM
CN(C)CCc1c[nH]c2cc(F)ccc12 [6-f-dmt],> 10 µM,> 10 µM,> 10 µM,> 10 µM,> 10 µM,> 10 µM,> 10 µM,7.13 µM,6.89 µM,> 10 µM,> 10 µM
CCCN(CCC)CCc1c[nH]c2ccccc12 [dpt],0.458 µM,> 10 µM,> 10 µM,> 10 µM,> 10 µM,> 10 µM,> 10 µM,2.92 µM,0.397 µM,> 10 µM,> 10 µM

# — BindingDB's records for PubMed 20126400 (University of Oklahoma, 2010)
